The term MIC denotes the smallest concentration in the dilution series that meets the test's criterion for growth inhibition. Broadly, the solubility is how much of the substance goes into solution per volume. Low values mean little dissolved substance, high ones much dissolved substance. What is called Papp A→B is the apparent permeability from the apical to the basolateral side of a cell layer. Low readings indicate poor permeation, high ones ready permeation. Usually Papp B→A stands for the apparent permeability from the basolateral to the apical side of a cell layer.

Converted amounts (≈) assume the structure as drawn. Read-outs that look alike come from different tables or passages of the source. Where only a bound is given, the exact number is not on record here.

Data set [1] deals with M. tuberculosis (H37Rv). Briefly: M. tuberculosis H37Rv resazurin reduction microplate MIC assay, hypoxic conditions (0.1% oxygen). It counts as cell-based, Mycobacterium tuberculosis. Conditions: H37Rv, hypoxia (0.1% oxygen). A general note: Resazurin is reduced to fluorescent resorufin, in cell work by metabolically active cells.
Data set [2] concerns L. donovani MHOM/IN/80/DD8 (ATCC50212). Briefly: L. donovani DD8 intracellular (THP-1) amastigote assay. The data set is classed as cell-based. To be noted: Leishmania donovani.
Data set [3] can be described thus: Broth microdilution MIC assay, ESKAPE pathogens. It counts as cell-based. To be noted: S. aureus, E. coli, K. pneumoniae, A. baumannii, P. aeruginosa; read-out: antibacterial MIC ESKAPE. In general terms: Dilution methods test growth across graded concentrations, often in twofold steps.
Data set [4] relates to ESKAPE pathogens S. aureus (ATCC 43300), E. coli (ATCC 25922), K. pneumoniae (ATCC 700603), A. baumannii (ATCC 19606), P. aeruginosa (ATCC 27853). The experiment in a line: Broth microdilution MIC assay, ESKAPE pathogens. The data set is classed as cell-based.
Data set [5] in a line: in vitro. Conditions: human.
Data set [6] can be described thus: Kinetic solubility determination by LC-UV. To be noted: room temperature, 1% DMSO.
A short description of data set [7]: Mammalian cytotoxicity, liver HepG2 and kidney HEK293 cell lines stated together. Conditions: human.
Data set [8] in a line: Plasma protein binding, ultrafiltration method. The data set is classed as in vitro ADME. To be noted: human plasma, % bound; for fraction unbound at 0.5 h, 5 µM: read-out: PPB (%) (converted).
Data set [9] in a line: Caco-2 monolayer bidirectional permeability assay. To be noted: human, Caco-2, pH 7.4. On the technique in general: Caco-2 cells form a polarised layer with tight junctions and transporters.
Data set [10] has as its system E. histolytica (HM1:IMSS). Briefly: ATP-bioluminescence cell growth and survival assay, E. histolytica trophozoites. The data set is classed as cell-based. To be noted: Entamoeba histolytica.
The test system of data set [11] is C. difficile (630, ATCC BAA-1382). The experiment in a line: Broth microdilution MIC assay, C. difficile. To be noted: 630 ATCC BAA-1382, median MIC; for MIC: Clostridioides difficile, ATCCBAA1382, read-out: antibacterial MIC C. difficile. The data set is classed as cell-based, Clostridium difficile.
Data set [12] in a line: Mammalian cytotoxicity assay (resazurin), HepG2. To be noted: human, HepG2 cells.
Data set [13] in a line: Mammalian cytotoxicity assay (resazurin), HEK293. Conditions: human, HEK293 cells.
In data set [14] the test system is C. albicans (ATCC 90028) and C. neoformans (H99, ATCC 208821). The experiment in a line: Broth microdilution MIC assay, fungi. The data set is classed as cell-based. To be noted: for MIC: Candida albicans, read-out: antifungal MIC.
Data set [15] in a line: in vitro. Conditions: human. The source holds these as a separate data set.
For data set [16], the system named is M. tuberculosis. Conditions: cited from earlier work.
Data set [17] can be described thus: in vitro. To be noted: human. This is another data set of the same source.
Data set [18] in a line: physchem.
Setting [19] is: read-out: antiparasitic IC50 L. donovani.
[20] abbreviates: read-out: antiparasitic pIC50 ± SE L. donovani (converted).
Setting [21] is: PBS, pH 7.4, Solubility µM (PBS), PBS pH 7.4, 24 h.
Where [22] appears, read: water, Solubility µM (H2O), 24 h.

In the case of `O=c1c2nc([N+](=O)[O-])cn2ccn1Cc1ccccc1` [17b, 7-Benzyl-2-nitroimidazo[1,2-a]pyrazin-8(7H)-one], the “antibacterial MIC M. tuberculosis hypoxia” value in data set [1] is 4.0 to 8.0 µg/mL. Further, the IC50 in data set [2] (setting [19]) was above 80 µM; in data set [2] (setting [20]), above 79.4 µM. Also, the minimal inhibitory concentration (MIC) in [3] is above 32 µg/mL. Also, the “antibacterial MIC ESKAPE” value in data set [4] is above 32 µg/mL. Further, the CC50 at 24 h in data set [5] was 105 µM; in data set [7] it was 98 to 123 µM. The solubility at 24 h in data set [6] (setting [21]) and in [6] (setting [22]) was below 5 µM throughout.
For `O=c1c2nc([N+](=O)[O-])cn2ccn1Cc1ccc(OC(F)(F)F)cc1` [17c, 2-Nitro-7-(4-(trifluoromethoxy)benzyl)imidazo[1,2-a]pyrazin-8(7H)-one], the “antibacterial MIC M. tuberculosis hypoxia” value in data set [1] was in the range of 1.0 to 4.0 µg/mL. The IC50 in [2] (setting [19]) is above 80 µM. Further, the IC50 in data set [2] (setting [20]) is above 79.4 µM. The MIC in data set [3] is above 32 µg/mL. In addition, in data set [4], the “antibacterial MIC ESKAPE” value was above 32 µg/mL. Also, the fraction unbound at 0.5 h, 5 µM in [8] is 0.02. In [6] (setting [21]), this compound came in with a solubility at 24 h below 5 µM. For the same compound, the solubility at 24 h in [6] (setting [22]) is below 5 µM. Further, in data set [9], the Papp A→B at 2 h, 2 µM stood at 25 ×10⁻⁶ cm/s; the Papp A→B at 2 h, 2 μM was above 20 ×10⁻⁶ cm/s; the Papp B→A at 2 h, 2 µM was found to be 22 ×10⁻⁶ cm/s.
For `O=c1c2nc([N+](=O)[O-])cn2ccn1Cc1cccc(OC(F)(F)F)c1` [17f, 2-Nitro-7-(3-(trifluoromethoxy)benzyl)imidazo[1,2-a]pyrazin-8(7H)-one], the IC50 in [2] (setting [19]) is above 80 µM; in [2] (setting [20]), above 79.4 µM. Further, the MIC in data set [3] is above 32 µg/mL. The “antibacterial MIC ESKAPE” value in data set [4] was above 32 µg/mL. Moreover, in [8], the fraction unbound at 0.5 h, 5 µM was 0.01. Further, the solubility at 24 h in [6] (setting [21]) and in data set [6] (setting [22]) was below 5 µM throughout. The compound further registered a Papp A→B at 2 h, 2 µM in [9] of 24 ×10⁻⁶ cm/s. Besides, in data set [9], the Papp A→B at 2 h, 2 μM was above 20 ×10⁻⁶ cm/s. Further, in [9], the Papp B→A at 2 h, 2 µM worked out at 24 ×10⁻⁶ cm/s.
Turning to `O=c1c2nc([N+](=O)[O-])cn2ccn1C1CCCCC1` [17t, 7-Cyclohexyl-2-nitroimidazo[1,2-a]pyrazin-8(7H)-one], the IC50 in data set [10] (read-out: antiparasitic IC50 E. histolytica) was above 50 µM; in [10] (read-out: antiparasitic pIC50 ± SE E. histolytica (converted)), above 50.1 µM; in data set [2] (setting [19]), above 80 µM; in data set [2] (setting [20]), above 79.4 µM. In addition, the “antibacterial MIC C. difficile” value in data set [11] was above 64 µg/mL. Also, the MIC in data set [11] was above 64 µg/mL; in data set [3] it was above 32 µg/mL. For the same compound, the “antibacterial MIC ESKAPE” value in [4] was above 32 µg/mL. Further, the solubility at 24 h in data set [6] (setting [21]) and in data set [6] (setting [22]) was below 10 µM throughout. Moreover, the CC50 at 24 h in data set [12] is 123 µM; in [13], 112 µM; in data set [7] (HepG2 and HEK293 cells), 98 to 123 µM.
With `O=c1[nH]c(-c2ccccc2)cn2cc([N+](=O)[O-])nc12` [24a, 2-Nitro-6-phenylimidazo[1,2-a]pyrazin-8(7H)-one], the figures for the IC50 in data set [2] (setting [19]) and in [2] (setting [20]) were above 80 µM and above 79.4 µM, respectively. Also, the “antibacterial MIC C. difficile” value in data set [11] is above 64 µg/mL. Besides, the values for the MIC in data set [11], in data set [3] and in data set [14] were above 64 µg/mL, above 32 µg/mL and above 32 µg/mL, respectively. Moreover, in data set [4], the “antibacterial MIC ESKAPE” value is above 32 µg/mL. In data set [14], the “antifungal MIC” value was above 32 µg/mL. Also, the CC50 in data set [15] and in data set [5] was above 100 µM in each case.
Regarding `Cc1cn2cc([N+](=O)[O-])nc2c(OCc2ccc(OC(F)(F)F)cc2)n1` [25g, 6-Methyl-2-nitro-8-((4-(trifluoromethoxy)benzyl)oxy)imidazo[1,2-a]pyrazine], the values for the IC50 in data set [2] (setting [19]) and in data set [2] (setting [20]) were above 80 µM and above 79.4 µM, respectively. Besides, the “antibacterial MIC C. difficile” value in [11] is above 64 µg/mL. Moreover, the MIC in data set [11] was above 64 µg/mL; in data set [3], above 32 µg/mL; in data set [14] it was above 32 µg/mL. Moreover, the “antibacterial MIC ESKAPE” value in data set [4] is above 32 µg/mL. The “antifungal MIC” value in data set [14] is above 32 µg/mL. Besides, in data set [8] (read-out: PPB (%)), the fraction unbound at 30 min, 5 μM is below 0.01. Besides, the solubility at 24 h in data set [6] (setting [21]) and in data set [6] (setting [22]) was below 5 µM in each case. Moreover, the CC50 at 24 h in data set [12] and in [13] was above 100 µM each time.
As to `O=[N+]([O-])c1cn2c(n1)OC[C@H](OCc1ccc(OC(F)(F)F)cc1)C2` [(R)-PA-824 (8), (R)-PA-824], in data set [16], the “activity against M. tuberculosis” value is “inactive”.
As for `FC(F)(F)Oc1ccc(CO[C@@H]2COc3nccn3C2)cc1` [compound 9, S-des-nitro-PA-824], the “MIC M. tuberculosis aerobic growth” value in data set [16] (aerobic growth) was above 160 µM. For the same compound, the “MIC M. tuberculosis anaerobic growth” value in [16] (anaerobic growth) is above 500 µM.
In the case of `CC(Cc1ccc(O)cc1)NCC(O)c1cc(O)cc(O)c1` (stereo not shown) [fenoterol], the Papp A→B at 2 h, 2 µM in data set [17] (Caco-2, pH 7.4) was 0.27 ×10⁻⁶ cm/s. This compound showed a recovery at 2 h, 2 µM in [17] (Caco-2, pH 7.4, mean recovery (%) A to B) of 92%.
Regarding `O=[N+]([O-])c1cn2c(n1)OC[C@@H](OCc1ccc(OC(F)(F)F)cc1)C2` [pretomanid 6, pretomanid, reference compound], the “antibacterial MIC ESKAPE” value in data set [4] was above 32 µg/mL. Also, the “antifungal MIC” value in data set [14] is above 32 µg/mL. Moreover, the Papp A→B at 2 h, 2 µM in [17] (Caco-2, pH 7.4) turned out to be 29 ×10⁻⁶ cm/s. This compound also yielded a Papp B→A at 2 h, 2 µM in data set [17] (Caco-2, pH 7.4) of 22 ×10⁻⁶ cm/s. Moreover, the figures for the solubility in [18] and in data set [18] (pH 7.4) were 11.3 ± 3.07 µM (≈ 4.06 µg/mL) and 10.6 ± 1.76 µM (≈ 3.81 µg/mL), respectively. Moreover, the CC50 at 24 h in data set [12] and in data set [13] was above 100 µM each time.

The values above are taken from article PMC6311682, “Design, Synthesis, and Biological Evaluation of 2-Nitroimidazopyrazin-one/-es with Antitubercular and Antiparasitic Activity” (Journal of Medicinal Chemistry, 2018).
